Experimental data reported in a melting point compilation (Tetko et al.; mined from patent text by program, amines drawn as free bases though some values may be those of a salt).
Non-standard residues stand in square brackets, D forms with d. Residues, ends and D or L forms follow the SMILES beside them. *: point of attachment. Tos = Cc1ccc(S(=O)(=O)*)cc1; Sar = CNCC(=O)O

SMILES | melting point [°C]
Cc1nc[nH]c1CSCCNC(=N)NS(=O)(=O)c1ccccc1 | 149 to 150
CSC1=NC2=NC3=C(CN(Cc4ccccc4)CC3=O)CN2N1 | 245 to 247
CCCCCCCCCCCCCCCC(=O)NC(=O)OCc1nc(C(C)C)c(Sc2cc(Cl)cc(Cl)c2)n1CC | 95 to 97
FC(F)=C(F)CC(=S)Nc1ccccc1 | 65 to 67
CC(=O)N(CCN1CCNC1=C(C#N)C#N)Cc1ccc(CN2CCCCC2)o1 | 166 to 167
Nc1nc(SCc2nc(C3CC3)no2)ncc1Cc1ccccc1 | 94
O=C(O)c1cccc(NC(=O)C(CS)Cc2ccccc2)c1 (centres undefined) | 178 to 180
CCCCCCCCCCCCCCCCCC(=O)n1cc(F)c(=O)[nH]c1=O | 101
Cc1cccc2c1N(CC(=O)N1CC3CCC(CC3)C1)C(=O)C(NC(=O)Nc1cccc(C=O)c1)N=C2c1ccccc1F (centres undefined) | 237 to 242
CCCC(=O)C1=C(O)CC2(CCC(C)CC2)OC1=O (centres undefined) | 60 to 63
O=C(Nc1ccc2c(c1)COCC2)OCc1ccccc1 | 94 to 95
Cc1nnc2n1-c1sc3c(c1C(c1ccccc1Cl)=NC2)CCN(C(=S)NCc1ccccc1C(F)(F)F)C3 | 178 to 184
S=c1[nH]c2c(n1Nc1cccc(Cl)c1)CCCC2 | 148
Cc1ccc(S(=O)(=O)N(C)CC(=O)N[C@@H](Cc2ccccc2)C(=O)O)cc1 (Tos-[Sar]-Phe-OH) | 128 to 130
CC(C)(C)OC(=O)N[C@H]1CN(Cc2ccccc2)[C@@H]2CCCO[C@H]12 (relative stereo) | 82 to 84
CC(C)CNC(=O)c1ccc(C(=O)O)cc1[N+](=O)[O-] | 255 to 257
CNC(=O)Oc1ccc(N=Cc2ccccc2O)c2ccccc12 | 143 to 146
CN(C)C(=O)CCC(NC(=O)C=Cc1ccco1)C(=O)N(C)C (centres undefined) | 178 to 180
Clc1cc(N2CCSCC2)nc(Cl)n1 | 118 to 122
Cc1cc(C)c2ccc(S(=O)(=O)O)nc2n1 | > 280
Cc1ncc(CO)c(NCc2ccc(-c3ccccc3-c3nnnn3C(c3ccccc3)(c3ccccc3)c3ccccc3)cc2)n1 | 112 to 114
CC(C)Nc1nc(-n2cccn2)nc(Cl)c1-c1c(F)cccc1Cl | 94 to 98
O=C(NCC(O)C(=O)O)c1cc2cc(Cl)ccc2[nH]1 (racemic) | 214 to 215
CCCCP(CCCC)(CCCC)=C1CC(=O)OC1=O | 70
CCCCCCC(C)(C)c1ccc(C2CC(=O)C=C(C)C2)c(OCc2ccccc2)c1 (centres undefined) | 60 to 61

SMILES | melting point [°C]
C=CC(CC(O)C(CC1CCCCC1)NC(=O)C(Cc1c[nH]cn1)NC(=O)C(Cc1ccccc1)Cc1ccccc1)C(C)C (centres undefined) | 98
O=C(CC1CN2C(=O)CC2O1)OC(c1ccccc1)c1ccccc1 (centres undefined) | 64.1 to 64.9
CCOC1CN2CCC1CC2 (centres undefined) | 96 to 98
CC(=O)Nc1ccc2c(c1)OCCN2C(C)=O | 150 to 154
O=C1OCc2c(c3cc(-c4ccc(OC(F)(F)F)cc4)ccc3n2Cc2ccccc2)C1=O | 239 to 240
CC(C)CN(C(=O)N(CCCl)N=O)C1(O)C(OC2CCCCC2)OC(CO)C1O (centres undefined) | 70 to 72
COC(=O)C(C)(C)n1c(=O)[nH]c2ccccc2c1=O | 158 to 159
O=S(=O)(NCCC(F)=C(F)F)c1ccc(C(F)(F)F)cc1 | 68 to 70
O=C(c1cc2ccnc(Cl)c2[nH]1)N1CCOCC1 | 170 to 171
O=C(O)C/C=C/CC(=O)O | 197 to 198
COc1cc(OC)nc(O[C@@H]2CCCC[C@H]2C(=O)NS(=O)(=O)c2ccccc2)n1 (relative stereo) | 175
COC(=O)CNC(C)=S | 78 to 79
c1ccc(CC[C@H]2CN(C3=Nc4ccccc4Sc4ccccc43)CCN2)cc1 | 48 to 59
O=C(Cc1ccccc1)Nc1ccc2c(c1)C(=O)c1cc(NC(=O)Cc3ccccc3)ccc1C2=O | 224
NCc1ccc(F)cc1C(F)(F)C(F)(F)c1ccccc1 | 52.5 to 54
CC(=O)Nc1ccc([N+](=O)[O-])c(C=O)c1 | 131 to 135
NC(=O)CNC(=O)C1(N2CCCC2=O)CC1 | 180
O=C(O)Cc1cc2c(c(-c3ccccc3)c1)NC(C(F)(F)F)CC2 (centres undefined) | 131 to 132
C[C@@H](Sc1ccc(O)cc1)C(=O)O | 138 to 139
CCNC(=O)n1nc(Oc2ncc(C(F)(F)F)cc2Cl)c(CC)c1C | 101 to 102
Cc1ccc(N2CCCN(c3ccnc4sc(C(N)=O)c(N)c34)CC2)nc1 | 205 to 208
CCOC(=O)[C@@H]1Cc2ccccc2N1C(=O)CC[C@@H](NC(=O)OCc1ccccc1)C(=O)OCc1ccccc1 | 114 to 116
O=C(C=Cc1ccc(Cl)cc1)C(Cc1ccccc1)c1ccccc1 (centres undefined) | 113 to 115
O=C1C=C(C2CCCCNC2=O)CCC1 (centres undefined) | 159 to 165

Further lines, results first:

melting point [°C] | SMILES
> 350 | O=c1[nH]c2cc(Cl)ccc2c(O)c1-c1cccc2ccccc12
189 to 190 | CC(=O)c1ccc(S(=O)(=O)Nc2cc(C)on2)cc1
224 to 227 | COc1ccc(OC2c3cc(C#N)ccc3OC(C)(C)C2O)nn1 (centres undefined)
70 | OCc1cccc(OCc2ccc3ccccc3n2)c1
135 to 136 | CCOC(=O)C1=C(C)Nc2ccnc(OC(C)C)c2C1c1ccccc1Cl (centres undefined)
71 to 73 | CCOC(=O)N(c1ccccc1[N+](=O)[O-])c1cccc(C)c1C
390 to 395 | Nc1ncc2cc(-c3ccccc3)c(O)nc2n1
121 to 123 | COc1ccc(-n2c(Br)ccc2-c2ccc(S(N)(=O)=O)cc2)cc1
228 to 229 | O=C1OC(c2ccccc2)=NC1=Cc1c(O)ccc2ccccc12
156 | COc1ccc(-n2nc(C(C)(C)C)cc2NC(=O)c2nccc3cc(Oc4cc(Cl)ncn4)ccc23)cc1
100 to 102 | O=C(Oc1ccnc(OC(=O)c2ccccc2)c1)c1ccccc1
214 | O=C1Nc2ccc(Cl)cc2C1(O)c1ccccc1OC(F)(F)F (centres undefined)
151 to 154 | Cn1c(-c2ccc(Br)cc2)c(OCCOc2ccc(C=C3SC(=O)NC3=O)cc2)c(=O)c2ccccc21
> 250 | CS(=O)(=O)Nc1cc2oc(C(=O)O)cc(=O)c2cc1Oc1ccccc1
103 | Cc1cccc(NC(=O)NCC(=O)N(c2ccccc2)C(C(=O)OC(C)(C)C)c2cccc(Br)c2)c1 (racemic)
154 to 156 | Cc1cc(C)cc(Nn2cnc(C)c2-c2ccccc2)c1
265 to 267 | Cc1cc(N2CCN(Cc3ccc(F)cc3)C2=O)sc1C(=O)NCc1nc2ccccc2[nH]1
114 to 115 | COc1ccc(-c2nc(S(=O)c3ccccc3)n(C)c2-c2ccc(OC)cc2)cc1 (centres undefined)
133 to 136 | CCN(c1ccc(Cl)cc1)c1cc(NC)nc(C)n1
124 to 125 | O=C1c2ccccc2C(=O)N1CCSc1ccc(O)cc1
140 to 145 | CCCS(=O)(=O)Oc1c(C(=O)c2ccc3c(c2C)C(SCC)CCS3(=O)=O)cnn1CC (centres undefined)
97 to 98 | CN(Cc1cc2c3c(c1)c(=O)c(C(=O)NCc1ccc(Cl)cc1)cn3CC(=O)N2C)C[C@@H](O)c1cnccn1
262 to 270 | c1cnn(Cc2ccc3c(c2)Cc2c(-c4ccsc4)n[nH]c2-3)c1
171 to 172 | Cn1cccc1CCNC(=O)Cn1c(-c2ccc(Cl)cc2)nc2cccnc21
53 to 54 | COc1ccc(C(=O)NCCN(C)C)cc1

melting point [°C] | SMILES
203 to 205 | CCOC(=O)c1[nH]c2cc(Cl)cc(Cl)c2c1NCCCC(=O)c1ccccc1
140 to 144 | CC(CNc1ccc(C(=O)O)cc1)Oc1ccccc1 (centres undefined)
125 to 127 | CN(C)c1ccc(-c2nc(Cl)c(C#N)n2Cc2ccccc2)cc1
52 to 54 | COC(=O)C(C)C(C#Cc1ccccc1)c1ccc(OC)c(OC2CCCC2)c1 (racemic)
121 | CCC(CC)(CCc1ccc(Cl)cc1)NC(=O)n1nc(N(C)C)n(N=C(C)CC(C)C)c1=O
128 to 129 | CCOc1ccc(C(=O)c2csc(-c3ccc(OCC)c(OCC)c3)n2)cc1OCC
63 to 65 | O=Cc1cccc(CSCCNC(=O)c2c(Cl)cccc2Cl)c1
123 to 124 | COc1cc(OCC(CO)CO)c(C=CC(=O)c2ccc(S(N)(=O)=O)cc2)cc1-c1cccs1
120 to 122 | CCc1c(Cc2ccccc2)n(COCCO)c(=O)[nH]c1=O
299 to 301 | O=c1[nH]c2ncc(-c3cccc(-c4cn[nH]n4)c3)nc2n1CC1CCCCC1
99 to 100 | O=C(NCCc1cccs1)c1cc(Cl)ccc1Cl
94 | COC(=O)c1ccc(-c2ccc(C(F)(F)F)cc2)c(COC(C)=O)c1
113 to 115 | CCOC(=O)C(Cc1ccc(OCCn2c(=O)sc3cc(C(=O)C4CC4)ccc32)cc1)OCC(F)(F)F (centres undefined)
175 to 177 | Cn1ncc(-c2ccc3c(c2)c(C2=CCN(CCN4CCNC4=O)CC2)cn3-c2ccc(F)cc2)n1
181 to 182 | CCOC(=O)c1c(C)cc2nc(CO)n(-c3ccc(OC)c(OC)c3)c(=O)c2c1C
69 to 70 | Cc1cc(CCCOc2ccc(-c3noc(C(F)(F)F)n3)cc2C)on1
250 to 251 | N#Cc1cnc2c(sc3ccccc32)c1Nc1ccc(Cl)cc1F
125 to 130 | Oc1ccc(-c2nc(-c3cccs3)c[nH]2)cc1Br
166 to 168 | Cn1cc(C(=O)NCc2ccc(Cl)cc2)c(=O)c2cc(CC3CCOCC3)cc(C#CCO)c21
163 to 164 | O=C(c1ccccc1)c1ccc(OCCCCOc2ccc(C(=O)c3ccccc3)cc2)cc1
163 to 164 | O=C(OCc1cc(-c2ccccc2)c(=O)n2c1-c1sccc1CC2)N1CCOCC1
61 to 62 | CCCCCOC(=O)Cc1nc(-c2ccccc2)oc1-c1ccsc1
315 to 318 | O=c1[nH]c2ccccc2c2nc(-c3ccc(Cl)cc3)nn12
77 to 78 | CCOP(=O)(Cc1ccc(C(=O)O)s1)OCC
311 to 312 | C[C@H](NC(=O)c1c[nH]c2ncc(-c3cccs3)nc12)C(C)(C)C
